# Reference: PMC9127750, “Structure-based design of CDC42 effector interaction inhibitors for the treatment of cancer” (Cell reports, 2022)
# Tested on: WM3248 melanoma cells, 486 antibodies
# Assay: Reverse phase protein arrays (RPPA);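 on CA9.R.C RPPA level: ratio of treated to vehicle (0 µM) normalized linear protein signal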;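 on RPPA ACC1.R.C: ratio of treated to vehicle (0 µM) normalized linear protein signal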;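 on RPPA ASNS.R.V: ratio of treated to vehicle (0 µM) normalized linear protein signal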;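 on RPPA AceCS1.R.V: ratio of treated to vehicle (0 µM) normalized linear protein signal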;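 on RPPA Akt1.R.V: ratio of treated to vehicle (0 µM) normalized linear protein signal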;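 on RPPA Ambra1 pS52.R.C: ratio of treated to vehicle (0 µM) normalized linear protein signal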;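 on RPPA Atg5.R.C: ratio of treated to vehicle (0 µM) normalized linear protein signal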;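 on RPPA Bim.R.V: ratio of treated to vehicle (0 µM) normalized linear protein signal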
# Type: cell-based, Human
# Conditions: 5 uM
# Source text: Pellets were snap frozen in liquid nitrogen and shipped to MD Anderson Cancer Center core RPPA facility for RPPA analysis (Table S5). Three biological replicates for each sample were generated.
# Nomenclatures on the RPPA heatmaps: name_of_antibody.species_of_antibody.status_of_antibody. V - antibody validated; C - validation of antibody in progress; Q - antibody nonspecific; E – under evaluation; antibodies raised in M - mouse, G - goat, R - rabbit, or T - rat.
smiles,measurement,setting,value
"CN(C)c1cccc(Nc2cc(-c3ccccc3)nc(C3CCNCC3)n2)c1 [ARN22089, N1,N1-dimethyl-N3-(6-phenyl-2-(piperidin-4-yl)pyrimidin-4-yl)benzene-1,3-diamine]",RPPA Akt_pT308.R.V,5W3,0.946
same,RPPA Ambra1_pS52.R.C,5W3,0.917
same,RPPA Annexin.I.M.V,5W3,0.971
same,RPPA Annexin.VII.M.V,5W3,1.007
same,RPPA Atg3.R.V,5W3,1.133
same,RPPA Atg4B.R.C,5W3,1.148
same,RPPA Atg5.R.C,5W3,0.936
same,RPPA Atg7.R.V,5W3,1.164
same,RPPA Aurora.A.R.C,5W3,1.000
same,RPPA Aurora.ABC_pT288_pT232_pT198.R.C,5W3,0.878
same,RPPA Aurora.B.R.V,5W3,0.688
same,RPPA Axl.R.V,5W3,1.276
same,RPPA B7.H4.R.C,5W3,1.076
same,RPPA B.Raf_pS445.R.V,5W3,1.159
same,RPPA BAP1.M.V,5W3,0.823
same,RPPA BCL2A1.R.V,5W3,0.750
same,RPPA BMK1.Erk5_pT218_Y220.R.V,5W3,1.014
same,RPPA BRCA1.M.C,5W3,0.946
same,RPPA BRD4.R.V,5W3,1.138
same,RPPA Bad_pS112.R.V,5W3,1.056
same,RPPA Bak.R.C,5W3,1.134
same,RPPA Bax.R.V,5W3,0.916
same,RPPA Bcl2.R.C,5W3,0.798
same,RPPA Bcl.xL.R.V,5W3,0.681
same,RPPA Beclin.R.C,5W3,0.789
same,RPPA Bid.R.C,5W3,1.142
same,RPPA Bim.R.V,5W3,0.991
same,RPPA X4E.BP1.R.V,5W3,1.157
same,RPPA X4E.BP1_pT37_T46.R.V,5W3,0.968
same,RPPA X14.3.3.zeta.R.V,5W3,0.946
same,RPPA X14.3.3βR.V,5W3,1.033
same,RPPA X14.3.3εM.C,5W3,0.879
same,RPPA X53BP1.R.V,5W3,0.922
same,RPPA b.Catenin.R.V,5W3,0.837
same,RPPA b.Catenin_pT41_S45.R.V,5W3,0.998
same,RPPA c.Abl.R.V,5W3,1.059
same,RPPA c.Abl_pY412.R.C,5W3,1.150
same,RPPA c.IAP2.R.C,5W3,1.026
same,C.Raf.R.C RPPA level,Average,1.065
same,C.Raf_pS338.R.V RPPA level,Average,1.113
same,CA9.R.C RPPA level,Average,0.982
same,CD2.M.C RPPA level,Average,1.031
same,CD4.R.V RPPA level,Average,1.062
same,CD5.M.C RPPA level,Average,1.017
same,CD20.R.C RPPA level,Average,0.788
same,CD26.R.V RPPA level,Average,0.939
same,CD29.M.V RPPA level,Average,1.028
same,CD31.M.V RPPA level,Average,1.028
same,CD44.R.C RPPA level,Average,0.921
same,CD45.M.V RPPA level,Average,1.027
same,CD49b.M.V RPPA level,Average,0.960
same,CD68.M.C RPPA level,Average,1.012
same,CD74.M.V RPPA level,Average,0.998
same,CD134.R.V RPPA level,Average,1.020
same,CD171.M.V RPPA level,Average,0.844
same,CDK1_pT14.R.C RPPA level,Average,1.060
same,CDK9.R.V RPPA level,Average,0.980
same,CDT1.R.V RPPA level,Average,1.028
same,CENP.A.R.V RPPA level,Average,0.953
same,CHD1L.R.V RPPA level,Average,1.018
same,CIITA.R.C RPPA level,Average,0.895
same,COG3.R.V RPPA level,Average,1.097
same,CRABP1.R.C RPPA level,Average,1.004
same,CRABP2.R.V RPPA level,Average,1.035
same,CREB_pS133.R.C RPPA level,Average,1.124
same,CSK.R.C RPPA level,Average,0.918
same,Calnexin.R.V RPPA level,Average,0.992
same,Caspase.7.cleaved..R.C RPPA level,Average,1.029
same,Caspase.8.M.Q RPPA level,Average,0.956
same,Caspase.8.cleaved.R.C RPPA level,Average,1.054
same,Cdc6.R.V RPPA level,Average,0.980
same,Cdc42.R.C RPPA level,Average,1.028
same,Chk1_pS296.R.V RPPA level,Average,1.083
same,Chk1_pS345.R.C RPPA level,Average,0.981
same,Chk2.M.V RPPA level,Average,0.925
same,Chk2_pT68.R.C RPPA level,Average,1.151
same,Claudin.7.R.V RPPA level,Average,0.907
same,Collagen.VI.R.V RPPA level,Average,1.059
same,Complex.II.Subunit.M.V RPPA level,Average,0.933
same,Connexin.43.R.C RPPA level,Average,1.140
same,Coup.TFII.R.C RPPA level,Average,1.033
same,Cox2.R.C RPPA level,Average,1.057
same,Cox.IV.R.V RPPA level,Average,1.028
same,Creb.R.C RPPA level,Average,1.080
same,CtIP.R.V RPPA level,Average,0.961
same,Cyclin.B1.R.V RPPA level,Average,1.030
same,Cyclin.D1.R.C RPPA level,Average,1.001
same,Cyclin.D3.M.V RPPA level,Average,1.046
same,Cyclin.E1.R.V RPPA level,Average,0.995
same,Cyclophilin.F.M.V RPPA level,Average,0.908
same,D.a.Tubulin.R.V RPPA level,Average,1.114
same,DAPK1_pS308.M.C RPPA level,Average,0.822
same,DDB.1.R.V RPPA level,Average,1.124
same,DDR1.R.V RPPA level,Average,0.952
same,DDR1_pY513.R.C RPPA level,Average,1.021
same,DJ1.R.V RPPA level,Average,1.059
same,DM.K9.Histone.H3.M.V RPPA level,Average,0.994
same,DNA.Ligase.IV.R.C RPPA level,Average,1.104
same,DNA_POLG.R.V RPPA level,Average,0.927
same,RPPA A.Raf.R.V,Average,1.059
same,RPPA A.Raf_pS299.R.C,Average,0.992
same,RPPA ACC1.R.C,Average,1.065
same,RPPA ACC_pS79.R.V,Average,0.961
same,RPPA ACLY_pS455.R.V,Average,0.986
same,RPPA ACSL1.R.V,Average,0.842
same,RPPA ACVRL1.R.C,Average,0.970
same,RPPA ADAR1.M.V,Average,1.014
same,RPPA ALKBH5.R.V,Average,0.919
same,RPPA AMPK.a2_pS345.R.V,Average,1.081
same,RPPA AMPKa.R.C,Average,1.048
same,RPPA AMPKa_pT172.R.C,Average,1.331
same,RPPA AR.R.V,Average,1.032
same,RPPA ARID1A.R.C,Average,1.009
same,RPPA ASNS.R.V,Average,1.062
same,RPPA ATM.R.V,Average,1.153
same,RPPA ATM_pS1981.R.V,Average,0.964
same,RPPA ATP5A.M.C,Average,0.801
same,RPPA ATP5H.R.V,Average,0.961
same,RPPA ATR.R.V,Average,0.966
same,RPPA ATRX.R.C,Average,1.030
same,RPPA ATR_pS428.R.C,Average,1.061
same,RPPA AceCS1.R.V,Average,0.899
same,RPPA Akt1.R.V,Average,0.928
same,RPPA Akt1_pS473.R.V,Average,1.048
same,RPPA Akt2.R.V,Average,1.002
same,RPPA Akt2_pS474.R.C,Average,1.185
same,RPPA Akt.R.V,Average,1.002
same,RPPA Akt_pS473.R.V,Average,1.132
same,RPPA Akt_pT308.R.V,Average,0.940
same,RPPA Ambra1_pS52.R.C,Average,0.946
same,RPPA Annexin.I.M.V,Average,1.026
same,RPPA Annexin.VII.M.V,Average,0.993
same,RPPA Atg3.R.V,Average,1.035
same,RPPA Atg5.R.C,Average,0.970
same,RPPA Atg7.R.V,Average,0.970
same,RPPA Aurora.A.R.C,Average,0.940
same,RPPA Aurora.ABC_pT288_pT232_pT198.R.C,Average,0.876
same,RPPA Aurora.B.R.V,Average,0.890
same,RPPA Axl.R.V,Average,1.076
same,RPPA B7.H3.R.C,Average,1.022
same,RPPA B7.H4.R.C,Average,1.046
same,RPPA B.Raf.R.C,Average,1.049
same,RPPA BAP1.M.V,Average,0.921
same,RPPA BCL2A1.R.V,Average,0.906
same,RPPA BMK1.Erk5_pT218_Y220.R.V,Average,0.997
same,RPPA Bad_pS112.R.V,Average,1.055
same,RPPA Bax.R.V,Average,0.956
same,RPPA Bcl2.R.C,Average,0.897
same,RPPA Bcl.xL.R.V,Average,0.932
same,RPPA Beclin.R.C,Average,0.921
same,RPPA BiP.GRP78.M.C,Average,0.957
same,RPPA Bid.R.C,Average,1.077
same,RPPA Bim.R.V,Average,0.984
same,RPPA DNMT1.R.V,Average,0.995
same,RPPA DRP1.R.V,Average,1.010
same,RPPA DUSP4.R.V,Average,1.114
same,RPPA DYRK1B.R.C,Average,1.013
same,RPPA Dvl3.R.V,Average,1.014
same,RPPA E2F1.R.V,Average,0.961
same,RPPA E.Cadherin.R.V,Average,0.957
same,RPPA EGFR.R.V,Average,0.980
same,RPPA EGFR_pY1068.R.C,Average,0.993
same,RPPA EGFR_pY1173.R.V,Average,1.046
